From publication PMC12948223, “HSP70 Interactome‐Mediated Proteolysis Targeting Chimera (HSP70‐PROTAC) for Ferroptosis‐Driven Cancer Treatment” (Advanced Science, 2025)
Read-outs that look alike come from different tables or passages of the source.

Biological target: T1, GPX4 (Homo sapiens, UniProt P36969)
T1 sequence (P36969 1-170 isoform P36969-2): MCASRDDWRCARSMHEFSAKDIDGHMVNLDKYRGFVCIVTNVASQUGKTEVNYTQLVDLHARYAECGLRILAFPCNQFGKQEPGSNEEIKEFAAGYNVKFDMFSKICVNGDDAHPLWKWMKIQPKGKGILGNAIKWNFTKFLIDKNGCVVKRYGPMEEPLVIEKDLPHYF
Assay: GPX4 degradation by western blot in HT1080 cells
Type: cell-based
Parameters: determine the changes in the endogenous levels of GPX4 by western blot assay; endogenous in cells; host or cells: HT1080 fibrosarcoma cells, including siRNA-knockdown derivatives
Details: for remaining activity at 0.5 µM: HT-1080, HT1080 cells, read-out: GPX4 % of control; for remaining activity at 1 µM: read-out: % of control (GPX4/GAPDH)
Outline: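 HT1080 fibrosarcoma cells were treated 24 h with PROTACs at 0.1, 0.3, 1 and 3 µM. Endogenous GPX4 was measured by western blot of RIPA lysates, with band intensities normalized to a loading control.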

`COc1ccc(-c2nc(-c3cc(C(F)(F)F)cc(C(F)(F)F)c3)n(Cc3ccc(C(=O)NCCOCCOCCOCCn4cc(COc5ccc(N(C(=O)CCl)C(C(=O)NCCc6ccccc6)c6cccs6)cc5Cl)nn4)cc3)c2-c2ccc(OC)cc2)cc1` (stereo not drawn) [GDAz-3, 4-((2-(3,5-bis(trifluoromethyl)phenyl)-4,5-bis(4-methoxyphenyl)-1H-imidazol-1-yl)methyl)-N-(2-(2-(2-(2-(4-((2-chloro-4-(2-chloro-N-(2-oxo-2-(phenethylamino)-1-(thiophen-2-yl)ethyl)acetamido)phenoxy)methyl)-1H-1,2,3-triazol-1-yl)ethoxy)ethoxy)ethoxy)ethyl)benzamide] was tested, and the “GPX4 degradation in wild-type and CRBN- or VHL-knockdown HT1080 cells” value (0.5 µM, 24 h) was “promoted the degradation of GPX4”, the “GPX4 degradation in BAG3-knockdown cells” value (BAG3 siRNA HT1080 cells, 24 h) was “completely abolished” and the “GPX4 degradation in CHIP-knockdown cells” value (CHIP siRNA HT1080 cells, 24 h) was “did not induce any detectable protein degradation of GPX4”. For the same molecule, the “Reduction of the GPX4 protein level” value (HT1080 cells, 0.1 µM, 24 h) was “≈ 50%”, the GPX4 degradation (HT1080 cells, 0.3 µM, 24 h (Figure 3A)) was “effectively triggered substantial GPX4 degradation” and the “Sustained GPX4 degradation upon washout” value (HT1080 cells, 1 µM for 24 h, then rinsed with PBS) was “without obvious recovery even 24 h after removal of the degrader”. The “GPX4 protein level, degradation kinetics” value (HT1080 cells, 1 µM, 8 h) was “obviously reduced GPX4 protein level”, the “GPX4 degradation efficiency versus reported GPX4 degraders” value (HT1080 cells, 1 µM, 24 h) was “comparable GPX4 degradation efficiency” and the “GPX4 protein level, degradation kinetics” value (HT1080 cells, 1 µM, 24 h) was “complete GPX4 depletion”. For the same molecule, the DC50 (HT1080 cells, 24 h) was 130 nM, the “GPX4 degradation effect in combination with 3-methyladenine (3-MA)” value (HT1080 cells, 24 h) was “partially rescued” and the “GPX4 degradation effect after proteasome inhibitor” value (HT1080 cells, MG132 5 µM for 2 h before GDAz-3 for 24 h) was “completely abrogated”. For the same molecule, the remaining activity at 0.5 µM (GDAz-3 0.5 µM 12 h after pre-treatment with MLN4924 2.5 µM for 2 h) was 61%, the remaining activity at 0.5 µM (GDAz-3 0.5 µM, 12 h) was 45% and the remaining activity at 1 µM (HT-1080, HT-1080, 1 µM, 24 h) was 45%. For the same molecule, the remaining activity at 1 µM (HT-1080, HT-1080-siRNA-LAMP2A (LAMP2A knockdown), 1 µM, 24 h) was 68%, the “GPX4 degradation in Hsc70-knockdown cells” value (Hsc70 siRNA HT1080 cells, 1 µM, 24 h) was “markedly abrogated” and the “GPX4 degradation in Hsp70-knockdown cells” value (Hsp70 siRNA HT1080 cells, 24 h) was “not affected”.
